Assays:
[1] = tested on: cardiomyocytes derived from human induced pluripotent stem cells; experiment: Doxorubicin-induced apoptosis (TUNEL), 48 hours; type: cell-based; conditions: 1 μM doxorubicin, VIT 115 μM, Dex 160 μM, AMB 0.76 μM, NAC 50 μM, KAE 17 μM, MES 10 μM
Experimental: Following treatment, the samples were incubated with a TUNEL dye to indicate apoptosis-positive cells, and a second dye to identify cell nuclei.

[2] = tested on: induced pluripotent stem cell-derived cardiomyocytes; experiment: Acute toxicity on electrophysiology (MEA beat period, field potential duration); type: cell-based; conditions: lower drug concentration, at least 20 minutes
Experimental: Samples were either mock-treated with 0.1% DMSO, or treated with increasing concentrations of the indicated drug for at least 20 minutes. Cardiomyocytes were treated with the hERG potassium channel blocker E4031 as a control. Following treatment, the beat period and field potential duration (FPD) were measured in each sample using the MEA.

[3] = tested on: patient; experiment: Patient treatment examples (echocardiogram / electrocardiogram); type: in vivo, human
Experimental: A patient, with a history of heart disease, is diagnosed with breast cancer. Due to an increased risk for heart failure, the patient is unable to receive the standard treatment regimen of doxorubicin, which is known to induce cardiotoxicity. Instead, the caregiver administers a co-formulation of doxorubicin (10 mg) and vitexin (100 mg). An echocardiogram is performed and blood flow rate is measured to determine if the therapy has a cardiotoxic effect in the patient.
A patient is diagnosed with liver cancer. […] The patient presents with a 20 ms QT prolongation. […] The patient is able to continue receiving treatment over several weeks after which a tissue biopsy is performed to confirm the liver cancer has been eradicated.
(§1) A patient is diagnosed with stage II lung cancer, and presents with bradycardia. Due to an increased risk for heart failure, the patient is unable to receive the standard treatment regimen of doxorubicin, which is known to affect cardiac contraction and induce bradycardia. Instead, the caregiver administers a co-formulation of doxorubicin (10 mg) and myricetin (100 mg). An electrocardiogram is used to monitor the patient's heart rate. […] The lung cancer is down-staged to stage 1, and the cancer is successfully removed with surgery.
as §1, with “myricetin (100 mg) 24 hours before administration” for “a co-formulation”, “(10” for “(10 mg) and myricetin (100”

[4] = tested on: MDA-MB-231 breast cancer cells; experiment: Cell viability with doxorubicin (CellTiter-Glo); type: cell-based; conditions: co-treated with increasing concentrations of doxorubicin, 72 hours
[5] = tested on: A549 cells (lung cancer); experiment: Cell viability with doxorubicin (CellTiter-Glo); type: cell-based; conditions: co-treated with increasing concentrations of doxorubicin, 72 hours
Experimental: A549 cells (lung cancer) were cultured for 1 day before performing experiments. […] XLFit was used for curve fitting.

[6] = tested on: human induced pluripotent stem cell-derived cardiomyocytes; experiment: Long-term mitochondrial health (TMRM), 7 days; type: cell-based; conditions: 1 μM doxorubicin alone or with dexrazoxane or vitexin
Experimental: Following treatment, the samples were incubated with a tetramethylrhodamine methyl ester (TMRM) dye to indicate mitochondrial health. […] Representative images are presented for each sample, wherein loss of TMRM signal represents mitochondrial toxicity.

[7] = tested on: induced pluripotent stem cell-derived cardiomyocytes; experiment: Long term toxicity on electrophysiology (active electrodes, MEA); type: cell-based; conditions: various concentrations, at least 5 days
Experimental: Samples were either mock-treated with 0.1% DMSO, or treated with various concentrations of the indicated drug. Following treatment, the percentage of active electrodes in each sample was measured for at least 5 days. Percentage of active electrodes was quantified and graphed in a time course.

[8] = tested on: human induced pluripotent stem cell-derived cardiomyocytes; experiment: Electrophysiological activity with doxorubicin (active electrodes, MEA); type: cell-based; conditions: for decrease in the number of active electrodes: 24 hours
Experimental: Samples were either mock-treated with 0.1% DMSO, treated with 1 μM doxorubicin, or co-treated with 1 μM doxorubicin and various concentrations of vitexin (e.g., 11.6 μM, 37 μM, or 116 μM). Following treatment, the percentage of active electrodes in each sample was measured for 72 hours. Percentage of active electrodes was quantified and graphed in a time course (FIG. 28A). The average number of active electrodes per well was quantified and graphed at 30 hours after the treatment (FIG. 28B, n=6, standard deviation is shown as error bars).

SMILES: O=c1cc(-c2ccc(O)cc2)oc2c([C@@H]3O[C@H](CO)[C@@H](O)[C@H](O)[C@H]3O)c(O)cc(O)c12 [vitexin]
- decrease in apoptosis vs doxorubicin alone [1]: at least 60%
- beat period or field potential duration, as compared to control samples [2]: no appreciable difference
- QT prolongation (in words) ([3]; doxorubicin (5 mg/mL) given with the protective agent): no signs of QT prolongation
- cardiac dysfunction in the patient ([3]; protective agent 100 mg co-formulated with, or 24 hours before, doxorubicin 10 mg): no indication of cardiac dysfunction
- percentage of cell death vs doxorubicin in the absence of a protective agent [4]: no significant difference
- percentage of cell death vs doxorubicin in the absence of a protective agent [5]: no significant difference
- mitochondrial toxicity / protection (TMRM-positive cells) [6]: improved long term mitochondrial protection
- number of active electrodes relative to the mock-treated sample (in words) [7]: no observable decrease
- decrease in the number of active electrodes ([8]; 1 μM doxorubicin and 11.6 μM vitexin): ~50%
- decrease in the number of active electrodes ([8]; 1 μM doxorubicin and 37 μM vitexin): ~25%
- decrease in the number of active electrodes ([8]; 1 μM doxorubicin and 116 μM vitexin): ~0%
- average number of active electrodes ([8]; 1 μM doxorubicin and 116 μM vitexin, 30 hours): about 10 active electrodes
